Columns and labels:
NOD mice = assay: Spontaneous T1D model (NOD mice), blood glucose values; type: in vivo; details: for % of reduction from Isotype/vehicle group: BGV at week 40 of age; for efficacy on the BGV: therapeutic setting
Source text: The efficacy of COMPOUND and of an anti-CD3 monoclonal antibody alone or in combination, or the combination of an anti-CD3 monoclonal antibody and anti-CXCL10 monoclonal antibody can be determined in inducible and spontaneous mouse models of T1D.
The efficacy of COMPOUND and the anti-CD3 monoclonal antibody alone or in combination can be determined in non-obese diabetic (NOD) mice, a spontaneous model for studying T1D (Chen et al. Front Endocrinol 2018, 9:51).
Blood glucose concentrations may be measured using a dynaValeo glucometer from dynamiCARE.
NOD mice usually develop diabetes defined as a blood glucose value (BGV)≥300 mg/dl between 13 and 30 weeks of age.
Groups of 14 to 17 mice are treated in a therapeutic setting, starting from the first measurement of diabetes (BGV≥300 mg/dL) for each mouse (day 1). Mice are randomized based on BGV and age at treatment initiation in five treatment groups: • Group 1: Isotype injected i.v., q.d., from day 1 to day 3+ control food from day 1 until end of the study (Isotype/vehicle) • Group 2: Isotype injected i.v., q.d., from day 1 to day 3+ food loaded with COMPOUND (0.6 mg/g of food) from day 1 until end of the study (Isotype/COMPOUND) • Group 3: Anti-CD3 antibody (30 μg), i.v., q.d., from day 1 to day 3+ control food from day 1 until end of the study (anti-CD3/vehicle) • Group 4: Anti-CD3 antibody (30 μg), i.v., q.d., from day 1 to day 3+ anti-CXCL10 antibody (100 μg), i.p., from day 4 to day 19 (administrations every 2nd/3rd day, 8 administations in total)+control food from day 1 until end of the study (anti-CD3/anti-CXCL10) • Group 5: Anti-CD3 antibody (30 μg), i.v., q.d., from day 1 to day 3+ food loaded with COMPOUND (0.6 mg/g of food) from day 1 until end of the study (anti-CD3/COMPOUND)
BGVs are assessed on a weekly basis and are compared between Isotype/control food-treated mice (group 1) and mice receiving the different treatments. For each mouse the experiment is terminated when the respective mouse reaches 40 weeks of age.
In this sub-analysis, only the mice not severely hyperglycemic at treatment initiation (defined as 300 mg/dL≤BGV≤400 mg/dL) were included in the study results.

[1] = COMPOUND plasma concentration in LPS-induced lung inflammation model; type: in vivo, Male DBA/1 mice; details: food admix, increasing doses
Method: Groups of 11 to 22 mice are given food mixed with different concentrations of COMPOUND (food admix) starting 3 days prior the LPS challenge and continuing during the whole duration of the experiment. The study consists of seven treatment groups: • 1. Control food admix (no COMPOUND), n=22 • 2. Food admix containing 0.006 mg COMPOUND per g food, n=12 • 3. Food admix containing 0.02 mg COMPOUND per g food, n=12 • 4. Food admix containing 0.06/0.07 mg COMPOUND per g food, n=24 • 5. Food admix containing 0.2 mg COMPOUND per g food, n=12 • 6. Food admix containing 0.6 mg COMPOUND per g food, n=11 • 7. Food admix containing 2 mg COMPOUND per g food, n=11
The experiment is terminated at day 3, 72 hours post LPS challenge. BAL is collected and number of T cells expressing CXCR3 quantified by flow cytometry as described in Pouzol et al., Front Pharmacol 2021,12(2991), doi: 10.3389/fphar.2021.748740. Plasma samples are taken for COMPOUND concentration determination.

[2] = test system: CXCR3-expressing CD8+ T cell migration into the BAL; assay: LPS-induced lung inflammation model, BAL CXCR3+CD8+ T cells by flow cytometry; type: in vivo, Male DBA/1 mice
[3] = test system: patients with severe corticosteroid-refractory ulcerative colitis; details: 15 μg/kg/day reduced to 10 μg/kg/day; cited from earlier work

| COMPOUND plasma concentration [1] | Molecule | % of reduction from Isotype/vehicle group (NOD mice; NOD mice, n = 14-17/group) [%] | % of reduction from Isotype/vehicle group (NOD mice; non-severe diabetic NOD mice, n = 7-11/group) [%] | efficacy on the BGV (NOD mice; NOD mice) | BGV at week 40 of age (mg/dL) (Mean ± SEM) (NOD mice; NOD mice, treatment from BGV≥300 mg/dL, n = 14-17/group) | BGV at week 40 of age (mg/dL) (Mean ± SEM) (NOD mice; non-severe diabetic NOD mice (300 mg/dL ≤ BGV ≤ 400 mg/dL at treatment initiation), n = 7-11/group) | efficacy on the BGV (NOD mice; non-severe diabetic NOD mice sub-analysis) | mice that showed disease progression (NOD mice; non-severe diabetic NOD mice, end of the study period) [%] | CXCR3+CD8+ T cell migration into the BAL ([2]; dose 0.6 mg of COMPOUND/g of food) | BAL CXCR3+CD8+ T cells ([2]; preventive setting, food admix 0.006 to 2 mg COMPOUND per g food from 3 days prior LPS, BAL 72 hours post LPS challenge) | patients demonstrating a clinical response [3] [%] |
| --- | --- | --- | --- | --- | --- | --- | --- | --- | --- | --- | --- |
| dose-dependent increase | Cc1ncn(CC(=O)N2CCN(c3sc(C(F)(F)F)nc3-c3cnc(C(F)(F)F)nc3)C[C@H]2CCO)n1 [COMPOUND, 1-{(R)-2-(2-Hydroxy-ethyl)-4-[2-trifluoromethyl-4-(2-trifluoromethyl-pyrimidin-5-yl)-thiazol-5-yl]-piperazin-1-yl}-2-(3-methyl-[1,2,4]triazol-1-yl)-ethanone] | 9 | 13 | minimal | 540.9 ± 35.4 | 517.3 ± 63.9 | minimal | 86 | significantly and maximally reduces | dose-dependent decrease | – |
| – | visilizumab: humanized IgG2 anti-CD3 antibody with two point mutations in its Fc portion for FcR non-binding properties (antibody, chains of the INN, looked up, V domains shown) VH: QVQLVQSGAEVKKPGASVKVSCKASGYTFISYTMHWVRQAPGQGLEWMGYINPRSGYTHYNQKLKDKATLTADKSASTAYMELSSLRSEDTAVYYCARSAYYDYDGFAYWGQGTLVTVSS VL: DIQMTQSPSSLSASVGDRVTITCSASSSVSYMNWYQQKPGKAPKRLIYDTSKLASGVPSRFSGSGSGTDFTLTISSLQPEDFATYYCQQWSSNPPTFGGGTKVEIK | – | – | – | – | – | – | – | – | – | 84 |

Source: patent US20250381184A1, “PHARMACEUTICAL COMBINATION COMPRISING AN ANTI-CD3 ANTIBODY AND A CXCR3 ANTAGONIST” (Idorsia Pharmaceuticals Ltd, priority 2022, published 2025)
